The numbers were not newly measured in patent US9878049B2, “High drug loading system to co-deliver anticancer drugs and nucleic acids for cancer therapy” (THE UNIVERSITY OF AKRON, priority 2013, dated 2018), which cites them from elsewhere.

Each structure is given as a SMILES string.

For the series the following is noted: general statement, no test described.

As for `CC[C@@]1(O)C(=O)OCc2c1cc1n(c2=O)Cc2cc3ccccc3nc2-1` [CPT, Camptothecin], the water solubility result is “low water solubility”.
